According to patent US12263171B2, “7-, 8-, and 10-substituted amino triazolo quinazoline derivatives as adenosine receptor antagonists, pharmaceutical compositions and their use” (Merck Sharp & Dohme LLC, priority 2018, dated 2025):

Legend:
[1] = biological target: human A2a adenosine receptor (Homo sapiens (Human), UniProt P29274); assay: A2a receptor affinity radioligand binding assay ([3H] SCH58261, membranes from HEK293 or CHO cells); conditions: for IC50: unstarred values: radioligand binding
Experimental: The A2a receptor affinity binding assay measured the amount of binding of a tritiated ligand with high affinity for the A2a adenosine receptor to membranes made from HEK293 or CHO cells recombinantly expressing the human A2a adenosine receptor, in the presence of varying concentrations of a compound of the invention.
Measurement of A2a Binding Affinity Using Radioligand Binding
148 μL, (5 μg/mL) membranes (Perkin Elmer, Cat. No. RBHA2aM4001A) and 2 μL compounds of the invention to be tested (test compound) were transferred to individual wells of a 96-well polypropylene assay plate and incubated for 15 to 30 minutes at room temperature. [^3H] SCH58261 ((7-(2-phenylethyl)-5-amino-2-(2-furyl)-pyrazolo-[4,3-e]-1,2,4-triazolo[1,5-c]pyrimidine)) was diluted in assay buffer (50 mM Tris pH 7.4, 10 mM MgCl2, 0.005% Tween20) to a concentration of 4 nM and 50 μL transferred to each well of the assay plate. […] The assay plate was incubated at room temperature for 60 minutes with agitation. […] Filtering was achieved by aspirating the contents of the assay plate for 5 seconds, then washing and aspirating the contents three times with ice-cooled wash buffer (50 mM Tris-HCl pH 7.4, 150 mM NaCl) and allowing the vacuum manifold to dry the plate for 30 seconds. The filter plate was incubated for at least 1 hour at 55° C. and allowed to dry. The bottom of the filter plate was sealed with backing tape. 40 μL. […] The plate was incubated for at least 20 minutes, and then the amount of radioactivity remaining in each well was determined using a TopCown® (Perkin Elmer) scintillation counter. After normalization to total and non-specific binding, the percent effect at each compound concentration was calculated. The plot of percent effect versus the log of compound concentration was analyzed electronically using a 4-parameter logistic fit based on the Levenberg-Marquardt algorithm to generate IC50 values.

[2] = biological target: human A2b adenosine receptor (Homo sapiens (Human), UniProt P29275); assay: A2b radioligand filtration binding assay (tritiated proprietary A2b antagonist, HEK293 membranes); conditions: for IC50: unstarred values: radioligand binding
Experimental: Measurement of A2b Binding Affinity
The reported affinity of the compounds of the invention for the human A2b adenosine receptor was determined experimentally using a radioligand filtration binding assay. This assay measures the amount of binding of a tritiated proprietary A2b receptor antagonist, in the presence and absence of a compound of the invention, to membranes made from HEK293 cells recombinantly expressing the human A2b adenosine receptor (Perkin Elmer, Cat. No. ES-013-C).
The filter plate was incubated for at least 1 hour at 55° C. and allowed to dry. The bottom of the filter plate was then sealed with backing tape. […] The plates were then incubated for at least 20 minutes, and then the amount of radioactivity remaining in each well was determined using a TopCount® (Perkin Elmer) scintillation counter. After normalization to total and non-specific binding, the percent effect at each compound concentration was calculated. The plot of percent effect versus the log of compound concentration was analyzed electronically using a 4-parameter logistic fit based on the Levenberg-Marquardt algorithm to generate IC50 values.

human A2b adenosine receptor, sequence (P29275 whole entry): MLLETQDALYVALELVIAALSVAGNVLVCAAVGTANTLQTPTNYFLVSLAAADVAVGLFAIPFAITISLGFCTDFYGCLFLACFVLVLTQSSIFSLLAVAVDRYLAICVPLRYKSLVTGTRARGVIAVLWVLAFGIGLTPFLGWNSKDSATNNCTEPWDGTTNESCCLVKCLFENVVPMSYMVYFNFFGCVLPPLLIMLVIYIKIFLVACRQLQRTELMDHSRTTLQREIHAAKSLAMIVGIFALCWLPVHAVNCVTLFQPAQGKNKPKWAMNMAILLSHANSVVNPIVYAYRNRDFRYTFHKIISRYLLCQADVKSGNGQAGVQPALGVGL
human A2a adenosine receptor, sequence (P29274 whole entry): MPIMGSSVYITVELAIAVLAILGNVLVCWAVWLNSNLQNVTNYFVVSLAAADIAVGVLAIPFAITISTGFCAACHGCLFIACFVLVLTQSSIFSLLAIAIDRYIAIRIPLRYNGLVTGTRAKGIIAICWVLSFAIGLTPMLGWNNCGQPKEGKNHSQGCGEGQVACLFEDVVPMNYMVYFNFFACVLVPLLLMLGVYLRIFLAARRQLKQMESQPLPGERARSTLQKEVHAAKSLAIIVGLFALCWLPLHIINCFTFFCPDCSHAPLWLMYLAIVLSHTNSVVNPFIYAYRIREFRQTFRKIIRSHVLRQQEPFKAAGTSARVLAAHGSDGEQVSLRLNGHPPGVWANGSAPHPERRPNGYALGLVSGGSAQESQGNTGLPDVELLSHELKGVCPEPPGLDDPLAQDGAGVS

SMILES	IC50 [1]	IC50 [2]	A2A binding % inh. @ 10000 nM ([1]; @ 10000 nM, unstarred)	A2B binding % inh. @ 10000 nM ([2]; @ 10000 nM, unstarred)
COc1cccc2c1nc(N)n1nc([C@H]3CCC4CCC3N4c3cnn(C)c3)nc21 (mixture of isomers) [Example 130A]	5.8 nM	7020 nM	–	–
COc1cccc2c1nc(N)n1nc([C@@H]3CCC4CCC3N4c3cnn(C)c3)nc21 (mixture of isomers) [Example 130B]	10.3 nM	3520 nM	–	–
COc1cccc2c1nc(N)n1nc(C3CCC[C@@](O)(c4cnn(C)c4)C3)nc21 (mixture of isomers) [Example 134B]	1 nM	76.7 nM	–	–
COc1cccc2c1nc(N)n1nc([C@@H]3CCCN(c4cnn(C5CCOC5)c4)C3)nc21 (single isomer, unassigned) [Example 57A]	0.4 nM	70.5 nM	–	–
COc1cccc2c1nc(N)n1nc([C@@H]3CCCN(c4cnn(C5CCOC5)c4)C3)nc21 (single isomer, unassigned) [Example 57B]	0.3 nM	89.3 nM	–	–
COc1cccc2c1nc(N)n1nc([C@@H]3CCCN(c4cnn(C5CCCC5O)c4)C3)nc21 (single isomer, unassigned) [Example 58B]	0.2 nM	34.9 nM	–	–
COc1cccc2c1nc(N)n1nc([C@@H]3CCCN(c4cnn(C5CCCC5(C)O)c4)C3)nc21 (single isomer, unassigned) [Example 59A]	0.4 nM	6.3 nM	–	–
COc1cccc2c1nc(N)n1nc([C@@H]3CCCN(c4cnn(C5CCCC5(C)O)c4)C3)nc21 (single isomer, unassigned) [Example 59B]	0.3 nM	1.7 nM	–	–
COc1cccc2c1nc(N)n1nc([C@@H]3CCCN(c4cnn(C5CCC5O)c4)C3)nc21 (single isomer, unassigned) [Example 60A]	1.8 nM	281 nM	–	–
COc1cccc2c1nc(N)n1nc([C@@H]3CCCN(c4cnn(C5CCC5O)c4)C3)nc21 (single isomer, unassigned) [Example 60B]	2 nM	181 nM	–	–
COc1cccc2c1nc(N)n1nc([C@@H]3CCCN(c4cnn(C(C)C(C)(C)O)c4)C3)nc21 (single isomer, unassigned) [Example 61A]	0.2 nM	45.2 nM	–	–
COc1cccc2c1nc(N)n1nc([C@@H]3CCCN(c4cnn(C(C)C(C)(C)O)c4)C3)nc21 (single isomer, unassigned) [Example 61B]	0.4 nM	84 nM	–	–
COc1cccc2c1nc(N)n1nc(C3CCC[C@](O)(c4cnn(C)c4)C3)nc21 (single isomer, unassigned) [Example 134A]	61.8 nM	7750 nM	–	–
COc1cccc2c1nc(N)n1nc([C@@H]3CCC[C@](O)(c4cnn(CC(C)(C)O)c4)C3)nc21 (single isomer, unassigned) [Example 135, (1R, 3R or 1S,3S)-3-(5-amino-7-methoxy-[1,2,4]triazolo[1,5-c]quinazolin-2-yl)-1-(1-(2-hydroxy-2-methylpropyl)-1H-pyrazol-4-yl)cyclohexan-1-ol]	1.3 nM	168 nM	–	–
COc1cccc2c1nc(N)n1nc([C@H]3CCC[C@@H](c4cnn(C)c4)C3)nc21 (single isomer, unassigned) [Example 136C]	1.2 nM	157 nM	–	–
COc1cccc2c1nc(N)n1nc([C@@H]3CCC[C@H](c4cnn(CC(C)(C)O)c4)C3)nc21 (single isomer, unassigned) [Example 137, 1-(4-((1S,3R or 1R,3S)-3-(5-amino-7-methoxy-[1,2,4]triazolo[1,5-c]quinazolin-2-yl)cyclohexyl)-1H-pyrazol-1-yl)-2-methylpropan-2-ol]	120 nM	8650 nM	–	–
COc1cccc2c1nc(N)n1nc(C3CCCC(c4cnn(CC(C)(C)O)c4)C3)nc21 (single isomer, unassigned) [Example 138]	3.4 nM	425 nM	–	–
CCn1cc(N2C[C@@H](c3nc4c5cccc(OC)c5nc(N)n4n3)CC[C@H]2C)cn1 (single isomer, unassigned) [Example 140A]	66.8 nM	5510 nM	–	–
COc1cccc2c1nc(N)n1nc(C3CCC(C)N(c4cnn(C5CC5)c4)C3)nc21 (single isomer, unassigned) [Example 141C]	1 nM	12 nM	–	–
COc1cccc2c1nc(N)n1nc(C3CCC(C)N(c4cnn(CC(C)(C)O)c4)C3)nc21 (single isomer, unassigned) [Example 143D]	0.5 nM	16.2 nM	–	–
COc1cccc2c1nc(N)n1nc(C3CCC(C)N(c4cnn(C(C)(C)CO)c4)C3)nc21 (single isomer, unassigned) [Example 146D]	0.8 nM	4.6 nM	–	–
COc1cccc2c1nc(N)n1nc([C@@H]3CC[C@H](C)N(c4cnn(C(C)C(C)(C)O)c4)C3)nc21 (single isomer, unassigned) [Example 147C]	3.9 nM	779 nM	–	–
COc1cccc2c1nc(N)n1nc(C3CN(c4cnn(CC5(O)CCC5)c4)CC(F)(F)C3)nc21 (single isomer, unassigned) [Example 157B, (R or S)-1-((4-(5-(5-amino-7-methoxy-[1,2,4]triazolo[1,5-c]quinazolin-2-yl)-3,3-difluoropiperidin-1-yl)-1H-pyrazol-1-yl)methyl)cyclobutan-1-ol]	0.7 nM	512 nM	–	–
COc1cccc2c1nc(N)n1nc(C3CN(c4cn(CC(C)(C)O)nc4C)CC(F)(F)C3)nc21 (single isomer, unassigned) [Example 158B, (R or S)1-(4-(5-(5-amino-7-methoxy-[1,2,4]triazolo[1,5-c]quinazolin-2-yl)-3,3-difluoropiperidin-1-yl)-3-methyl-1H-pyrazol-1-yl)-2-methylpropan-2-ol]	0.4 nM	526 nM	–	–
COc1cccc2c1nc(N)n1nc(C3CN(c4cnn(CC(C)(C)O)c4C)CC(F)(F)C3)nc21 (single isomer, unassigned) [Example 159B, (R or S)-1-(4-(5-(5-amino-7-methoxy-[1,2,4]triazolo[1,5-c]quinazolin-2-yl)-3,3-difluoropiperidin-1-yl)-5-methyl-1H-pyrazol-1-yl)-2-methylpropan-2-ol]	0.1 nM	792 nM	–	–
Cn1cc(N2CCCC(c3nc4c5cccc(O)c5nc(N)n4n3)C2)cn1 (single isomer, unassigned) [Example 165, (R or S)-5-amino-2-(1-(1-methyl-1H-pyrazol-4-yl)piperidin-3-yl)-[1,2,4]triazolo[1,5-c]quinazolin-7-ol]	–	–	19% inh. @ 10000 nM	10% inh. @ 10000 nM
COc1ccc2c(nc(N)n3nc(C4CCCN(c5cnn(C)c5)C4)nc23)c1F (single isomer, unassigned) [Example 166, (R or S)-7-fluoro-8-methoxy-2-(1-(1-methyl-1H-pyrazol-4-yl)piperidin-3-yl)-[1,2,4]triazolo[1,5-c]quinazolin-5-amine]	18 nM	234 nM	–	–
Cc1ccc2c(nc(N)n3nc(C4CCCN(c5cnn(C)c5)C4)nc23)c1C (single isomer, unassigned) [Example 167, (R or S)-7,8-dimethyl-2-(1-(1-methyl-1H-pyrazol-4-yl)piperidin-3-yl)-[1,2,4]triazolo[1,5-c]quinazolin-5-amine]	14.1 nM	117 nM	–	–
